According to PubChem BioAssay AID1919013 (Molecular Pharmacology Branch, DTP, NCI, 2023):

Test system: LG0703-F498-PDC complex spheroid growth
Test: Anticancer human tumor LG0703-F498-PDC patient-derived lung adenocarcinoma cell line growth inhibition [AhR]
Conditions: for IC50: curve of first compound; for viability, T/C: stronger effect = lower value
Description: Multicellular complex tumor spheroid response to aryl hydrocarbon receptor antagonists in combination with a variety of drugs and investigational agents in selected tumor cell lines
The current study was undertaken to assess response to aryl hydrocarbon receptor antagonists in combination with standard-of-care drugs and investigational agents in solid tumor complex spheroid models. Complex spheroids include a stromal component modeled by human endothelial cells (HUVEC) and fibroblasts modeled by human mesenchymal stem cells (MSCs). The concentration ranges selected for each drug and investigational agent were based upon clinically achievable concentrations if the clinical Cmax of the agent was known.
Compounds. The drugs and investigational agents: BAY 2416964 (NSC825713), GNF351 (NSC835774), CH-223191 (NSC835775), CPI-455 (NSC825282), aza-TdCyd (NSC777586), decitabine (NSC127716), belinostat (NSC758774), entinostat (NSC756642), pevonedistat (NSC761192), tazemetostat (NSC777109), talazoparib (NSC765396), olaparib (NSC753686), selinexor (NSC780203), nedisertib (M3814, NSC802822), bortezomib (NSC756655), venetoclax (NSC766270), doxorubicin (NSC123127), elimusertib (BAY189344, NSC800525), ceralasertib (AZD6738, NSC777638), TAK-243 (NSC785004), alisertib (NSC759677), etoposide (NSC141540), topotecan (NSC609699), eribulin (NSC707389), gemcitabine (NSC613327), carboplatin (NSC241240), cisplatin (NSC119875), and SN-38 (NSC673596) were obtained from the National Cancer Institute (NCI) Developmental Therapeutics Program Chemical Repository (32). The FDA-approved anticancer drug set is available from the Developmental Therapeutics Program at https://dtp.cancer.gov/organization/dscb/obtaining/available plates.htm. […] The stock solutions were prepared in dimethyl sulfoxide (DMSO, Sigma-Aldrich, St. Louis, MO, cat. D2650), except for the platinum compounds which were prepared in saline (Quality Biological, Gaithersburg, MD, cat. 114-055-101), at 800-fold the tested concentration and stored at -70 degrees C prior to their use. All drugs and investigational agents were tested over a range starting from a high concentration at or near the clinical Cmax and decreasing in half-log increments. If the clinical Cmax for an agent had not been determined, the highest concentration tested was 10 microM (Table 1).
Cell Culture. All cells were maintained in an incubator at 37 degrees C and 5% CO2 with 95% humidity. The PDC lines were cultured according to standard operating procedures established by the NCI PDMR (https://pdmr.cancer.gov). Briefly, all PDCs were thawed and cultured in Matrigel-coated flasks prepared with a working solution of 1X Ham's F-12 nutrient mix, without supplementation (Invitrogen, Waltham, MA, cat. 11765054), 100 U/mL penicillin-streptomycin (Invitrogen, cat. 15140122), and 2.5% Matrigel (Corning Inc., Corning, NY, cat. 354248) for the first three passages. All PDCs were cultured in complete DMEM/F-12 media containing advanced DMEM/F-12 (Invitrogen, cat. 12634028), 4.9% defined fetal bovine serum, heat inactivated (HyClone Laboratories Inc., Logan, UT, cat. SH30070.03HI), 389 ng/mL hydrocortisone (Sigma-Aldrich, cat. H4001), 9.7 ng/mL human EGF recombinant protein (Invitrogen, cat. PHG0313), 23.4 microg/mL adenine (Sigma-Aldrich, cat. A2786), 97.3 U/mL penicillin-streptomycin (Invitrogen, cat. 15140122), 1.9 mM L-glutamine (Invitrogen, cat. 25030081), and 9.7 microM Y-27632 dihydrochloride (Tocris Bioscience, Bristol, United Kingdom, cat. 1254). The PDCs were cultured in complete DMEM/F12 media without 10 microM Y-27632 dihydrochloride for at least two passages prior to the screen. The established cell lines NCI-H1341 and […] were cultured in DMEM/F-12, HEPES (Invitrogen, cat. 11330032), 5% defined fetal bovine serum (HyClone Laboratories Inc., cat. SH30070.03), ITS premix universal culture supplement [insulin (5 microg/mL), transferrin (5 microg/mL), and selenious acid (5 ng/mL)] […]
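Further: luminescence taken as a proxy for viable cell amount.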
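Wherever viability, T/C is given: percent of DMSO vehicle control where 100% means growth equal to vehicle.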

- IC50 (second compound 0.1 µM): < 31.6 nM
- IC50 (second compound 0.316 µM): < 31.6 nM
- IC50 (second compound 1 µM): < 31.6 nM
- IC50 (second compound 3.16 µM): < 31.6 nM
- IC50 (second compound 10 µM): < 31.6 nM
SMILES: Nc1ccn(C2OC(CO)C(O)C2(F)F)c(=O)n1 (stereo not given) + CC(CO)NC(=O)c1cc(-c2ccc(Cl)cc2)nn(-c2cnn(C)c2)c1=O
- viability, T/C (second compound 0.1 µM, first compound 0.0316 µM): 43.6%
- viability, T/C (second compound 0.1 µM, first compound 0.1 µM): 43.4%
- viability, T/C (second compound 0.1 µM, first compound 0.316 µM): 39.1%
- viability, T/C (second compound 0.1 µM, first compound 1 µM): 38.8%
- viability, T/C (second compound 0.1 µM, first compound 3.16 µM): 35.7%
- viability, T/C (second compound 0.1 µM, first compound 10 µM): 26.6%
- viability, T/C (second compound 0.316 µM, first compound 0.0316 µM): 43.3%
- viability, T/C (second compound 0.316 µM, first compound 0.1 µM): 41.7%
- viability, T/C (second compound 0.316 µM, first compound 0.316 µM): 41.1%
- viability, T/C (second compound 0.316 µM, first compound 1 µM): 38.3%
- viability, T/C (second compound 0.316 µM, first compound 3.16 µM): 28.4%
- viability, T/C (second compound 0.316 µM, first compound 10 µM): 27.3%
- viability, T/C (second compound 1 µM, first compound 0.0316 µM): 46.7%
- viability, T/C (second compound 1 µM, first compound 0.1 µM): 47.5%
- viability, T/C (second compound 1 µM, first compound 0.316 µM): 39.9%
- viability, T/C (second compound 1 µM, first compound 1 µM): 37.9%
- viability, T/C (second compound 1 µM, first compound 3.16 µM): 31%
- viability, T/C (second compound 1 µM, first compound 10 µM): 27.1%
- viability, T/C (second compound 3.16 µM, first compound 0.0316 µM): 42.8%
- viability, T/C (second compound 3.16 µM, first compound 0.1 µM): 41.9%
- viability, T/C (second compound 3.16 µM, first compound 0.316 µM): 41.9%
- viability, T/C (second compound 3.16 µM, first compound 1 µM): 39.2%
- viability, T/C (second compound 3.16 µM, first compound 3.16 µM): 29.2%
- viability, T/C (second compound 3.16 µM, first compound 10 µM): 23.9%
- viability, T/C (second compound 10 µM, first compound 0.0316 µM): 40%
- viability, T/C (second compound 10 µM, first compound 0.1 µM): 40.5%
- viability, T/C (second compound 10 µM, first compound 0.316 µM): 45%
- viability, T/C (second compound 10 µM, first compound 1 µM): 34.5%
- viability, T/C (second compound 10 µM, first compound 3.16 µM): 27.2%
- viability, T/C (second compound 10 µM, first compound 10 µM): 23.7%
